# In patent US5089392A, “Fluorogenic substrates for measurement of lysosomal enzyme activities within intact cells” (The United States of America as represented by of the …, priority 1990, dated 1992):
# What was measured:
# [1] = pKa of the Im-DCH fluorophor (imidazole moiety, phenol, excited state); assay type: physicochemical
# Excerpt: This term refers to moderately basic amines that concentrate (via acid-base equilibria) in low pH organelles such as lysosomes. For Im-DCH in compounds 4 and 5, the N-alkyl imidazole moiety, with a pKa of approximately 7, serves this function. This lysosomotropic property accounts for a first important attribute of enzyme substrates based upon Im-DCH that is, concentration within lysosomes to ensure that sufficient substrate is concentrated within the lysosomes in order to yield a readily detectable fluorescent signal.
# (§1) Two other advantages of the fluorophors of the present invention derive from their physical and optical properties: (1) The low pKa of the phenol in Im-DCH (pKa-5.6) allows the maximal fluoroscence (excitation at 385 nm, detection at 460 nm) to be generated at physiological pH values as well as the low pH conditions within lysosomes. The extremely low pKa of the excited state of Im-DCH (pKa*=0.5) permits strong fluorescence to be measured in solutions as acidic as pH 2-3. By proper choice of spectral parameters (excitation at 365 nm, detection at 460 nm), the fluorescence becomes essentially independent of pH, with a fluorescence intensity at pH 2 that is 60% of the maximum. Ratio measurements of fluorescence (emission at 460 nm with excitation at 365 and 385 nm) also provide an estimate of the pH at the site of enzymatic hydrolysis. (2) Shifts in both the absorption and emission spectra occur upon the hydrolysis of glycosides of Im-DCH to give free Im-DCH. This permits the detection of small amounts of enzymatic hydrolysis in the presence of a very large excess of substrate. For example, at 385 nm excitation and 460 nm detection, the ratio of fluoroescence of the hydrolysis product, Im-DCH, to intact Im-DCH-β-Gal is 620:1. […] It is then deacetylated intracellularly to generate the enzymatically active substrate.
# [2] = Fluorescence properties of Im-DCH and its galactoside; assay type: physicochemical; conditions: excitation at 365 nm, detection at 460 nm
# Excerpt: as §1
# [3] = target: T1, lysosomal β-galactosidase (Homo sapiens, UniProt P16278); assay: Loading and intracellular hydrolysis in intact human skin fibroblasts in culture (fluorescence scanning of 96-well plates, fluorescence microscopy); assay type: cell-based
# T1 sequence (P16278 29-677): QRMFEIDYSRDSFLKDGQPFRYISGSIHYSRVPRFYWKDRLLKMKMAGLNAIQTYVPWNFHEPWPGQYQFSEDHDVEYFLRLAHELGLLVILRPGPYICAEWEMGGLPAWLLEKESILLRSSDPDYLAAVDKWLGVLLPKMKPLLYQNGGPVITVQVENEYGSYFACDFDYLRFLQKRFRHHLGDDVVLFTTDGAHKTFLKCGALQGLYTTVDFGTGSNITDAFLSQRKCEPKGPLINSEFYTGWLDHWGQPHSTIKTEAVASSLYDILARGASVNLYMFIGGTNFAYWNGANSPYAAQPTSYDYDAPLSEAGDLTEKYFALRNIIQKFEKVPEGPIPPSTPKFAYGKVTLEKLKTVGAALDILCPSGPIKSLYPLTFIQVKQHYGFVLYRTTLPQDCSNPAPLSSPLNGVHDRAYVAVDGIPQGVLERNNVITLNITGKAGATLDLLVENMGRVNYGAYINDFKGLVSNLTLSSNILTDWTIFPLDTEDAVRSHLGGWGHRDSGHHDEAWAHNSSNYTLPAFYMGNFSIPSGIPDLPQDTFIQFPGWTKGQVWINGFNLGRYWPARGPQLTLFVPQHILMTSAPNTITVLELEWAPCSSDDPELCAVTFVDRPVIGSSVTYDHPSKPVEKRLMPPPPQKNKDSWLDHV
# Protocol: Loading of Im-DCH-β-Gal(OAc)., 4, into human skin fibroblasts in culture was accomplished as follows. A 20 mM solution of 4 in ethanol was injected via syringe into McCoy's medium to give a 0.1 mM final concentration of fluorogenic substrate. The substrate was further dispersed in the medium by sonication with a W140 Sonifier (two 10 second pulses on power setting of 3). After incubation for 24 hours in serum-free McCoy's medium, cells were loaded with 4 by replacement of the medium with medium containing 0.1 mM substrate. Excess Im-DCH-β-Gal(OAc) may be removed by rinsing the cells, after which the cells may be further incubated in serum free McCoy's medium. […] Excitation (Xenon lamp) through a 360 nm bandpass filter with 10% transmittance at 310 and 385 nm. Emission through a chromatic beam splitter mirror that transmits fully above 405 nm plus a long pass filter with a transmittance of 1% at 408 nm and 10% at 412 nm. Enzymatic hydrolysis was followed by scanning of the loaded cells in a 96-well tissue culture plate with a Dynatech Microfluorometer. Quantitation of product formation was achieved by comparison of the fluorescence generated within individual wells with a standard curve that was obtained from known concentrations of the fluorescent product, 3.
# Decreased activity was measured in GM1 cells (12-16% of normal) by fluorescence scanning of 96-well plates. […] In contrast, normal cells are nonfluorescent 24 hours after loading, having hydrolysed their substrate and released the fluorescent product into the media.
# β-galactosidase = assay: Cell-free systems that have β-galactosidase activity; assay type: biochemical
# [4] = target: T1, lysosomal β-galactosidase; assay: In vitro hydrolysis of the fluorogenic substrate by fibroblast lysates; assay type: biochemical
# Protocol: The ability of 5 to serve as a fluorogenic substrate was tested using fibroblasts derived from patients with GM1 gangliosidosis, a hereditary deficiency of lysosomal β-galactosidase.
compound,measurement,setting,value
"Cl.N#Cc1c(O)ccc(OCCCCn2ccnc2)c1C#N [Compound 3, 2,3-dicyano-4-[4-(1-imidazolyl)-butoxy]-phenol hydrochloride salt]",pKa of the phenol,[1],5.6
same,pKa of the excited state (pKa*),[1]; excited state,0.5
same,pKa of the N-alkyl imidazole moiety,[1]; lysosomotropic amine moiety of Im-DCH in compounds 4 and 5,approximately 7
same,fluorescence intensity at pH 2 relative to the maximum,[2],60%
"CC(=O)OC[C@H]1O[C@@H](Oc2ccc(OCCCCn3ccnc3)c(C#N)c2C#N)[C@H](OC(C)=O)[C@@H](OC(C)=O)[C@H]1OC(C)=O [Compound 4, β-D-galactopyranoside of 2,3-dicyano-4-[4-(1-imidazolyl)-butoxy]-phenol-2,3,4,6-tetra-O-acetate]",hydrolysis activity in intact GM1 cells relative to normal,"[3]; GM1 cells, fluorescence scanning of 96-well plates",12-16 % of normal
same,intracellular localization of fluorescence in GM1 fibroblasts,"[3]; GM1 fibroblasts, fluorescence microscopy",initial perinuclear clustering followed within 24 hours by sequestration into vacuoles
same,specificity of the impaired hydrolysis in GM1 gangliosidosis lines,[3]; comparison with cell lines expressing other lysosomal storage disorders,specific for their lysosomal β-galactosidase deficiency
same,uptake by intact fibroblasts,"[3]; human skin fibroblasts, 0.1 mM substrate",taken up by intact fibroblasts
same,fluorescence of normal cells after loading,"[3]; normal fibroblasts, 24 hours after loading",nonfluorescent
same,activity as a substrate in cell-free systems,β-galactosidase,inactive
"N#Cc1c(OCCCCn2ccnc2)ccc(O[C@@H]2O[C@H](CO)[C@H](O)[C@H](O)[C@H]2O)c1C#N [Compound 5, β-D-galactopyranoside of 2,3-dicyano-4-[4-(1-imidazolyl)-butoxy]-phenol]",hydrolysis activity in GM1 gangliosidosis lysates relative to normal,[4]; lysates from four GM1 gangliosidosis fibroblast lines,0.3-5.3 % of normal activity
same,hydrolysis by lysates from normal fibroblasts,[4]; lysates from three normal fibroblast lines,hydrolysed rapidly
